These results are taken from patent US20050181952A1, “Slow-release agrochemicals dispenser and method of use” (priority 2002, published 2005).

The test system of experiment [1] is Striga. The experiment can be described thus: Pot experiments, Kenya: watering regimes and efficacy of slow release formulations on Striga. Particulars: pots. The format is in vivo. As for the experimental part:
Formulations were prepared as outlined in Example 3 and applied to the seeds, without adding free imazapyr (as in Example 2) and planted in pots. 63 pots (10,380 cm^3) were set up, each with 8 kg soil (classified as a vetro-eutic planosol according to the FAO/UNESCO (1974) system) so that we had 21 pots per replication. Each pot was inoculated with 3,000 Striga and mixed thoroughly at a depth of 15 cm. The pots were watered and left for one week to allow Striga seeds to “pre-condition” for germination. Two IR-corn seeds were planted in each plot, each treated 0, 0.25, 0.5 acid equivalent mg imazapyr per pot, as the free acid of the herbicide, or in 0, 0.15, 0.3, acid equivalent mg imazapyr per pot DE-52 or Dowex 1 formulations. Each formulation treatment at each rate had three replicates at each simulated rainfall regime. Natural rain measurements were made. Rainfall was supplemented at 19, 28, and 56 mm of water applied twice weekly, less amount of natural rainfall, for three months to simulate seasonal rainfalls of 500, 750 and 1500 mm, respectively. Measurements of Striga emergence were made at biweekly intervals. Late season emergence of Striga was measured at 12 weeks after planting. […] At the medium and highest watering level, there was no control of Striga by the lowest free herbicide rates, whereas the slow release herbicide performed far better (Table 3).

Experiment [2] has as its system Striga. The experiment can be described thus: Field experiment Short Rains 2002: slow release formulations without free herbicide, Striga control. Type of experiment: in vivo. As for the experimental part: A solid coat of polylvinylpyrollidone (PVP) (avg. MW 90 Kd) was used to bind the various formulations to the maize seed. 90 mg of PVP mixed with 2.9 ml water was combined with various amounts of the slow release formulations described in Example 1 or with 36 mg dry imazapyr (acid form) or sodium pyrithiobac powder mixed thoroughly together and then with 144 maize seeds (to give a imazapyr coating of 0.25 mg a.e. imazapyr seed^−1). This is the equivalent of 13.25 g a.e. ha^−1, respectively, when planted in the field at 53,300 seeds ha^−1. The treated seeds were then planted in the field within 2 days of coating. All field experiments were conducted at the National Sugar Research Center (NRSC) of the Kenya Agricultural Research Institute (KARI) near Kibos (0°04′S, 34°48′, elevation 1214 m) in western Kenya. The soil is classified as a vetro-eutic planosol according to the FAO/UNESCO (1974) system. The fields used had previously been cropped to maize that was heavily infested with Striga, which matured and seeded the area. The experiments were carried out during October-January […]. Seasonal precipitation during that season was 550 mm. […] Maize stand counts were determined six weeks after planting. […] The number of flowering Striga plants and Striga seed capsules at twelve and fourteen weeks; adjusted grain yield to 15% moisture; and total maize shoot dry weight were all measured. […]

Regarding `CC(C)C1(C)N=C(c2ncccc2C(=O)O)NC1=O` (centres unmarked) [Imazapyr, imazapyr], the “Late season Striga emergence 12 weeks (plants/m^2)” value in the experiment on Striga [1] (High water (1500 mm total), imazapyr 0.25 mg/seed) is 57 plants/m^2; with Striga [1] (High water (1500 mm total), imazapyr 0.5 mg/seed), 11 plants/m^2; in the experiment with Striga [1] (Low water (500 mm total), imazapyr 0.25 mg/seed) it was 16 plants/m^2; in the experiment with Striga [1] (Low water (500 mm total), imazapyr 0.5 mg/seed) it was 3 plants/m^2; with Striga [1] (Medium water (750 mm total), imazapyr 0.25 mg/seed), 33 plants/m^2; in the experiment with Striga [1] (Medium water (750 mm total), imazapyr 0.5 mg/seed), 7 plants/m^2. Besides, the results for the “Striga emergence (m^−2) at 12 weeks” value in the experiment on Striga [2] (imazapyr 0.25 mg/seed) and with Striga [2] (imazapyr 0.5 mg/seed) were 2.1 m^−2 and 0.7 m^−2, respectively.
